Measurements: article PMC4457528, “Identification of Novel Small Molecule Inhibitors of Oncogenic RET Kinase” (PLoS ONE, 2015)
Read-outs that look alike come from different tables or passages of the source.

Legend:
Assay in all cases: KinomeScan kinase panel, single concentration 10 µM
Assay type in all cases: binding
KinomeScan kinase panel [1] = target: T1, KinomeScan kinase panel (Homo sapiens, UniProt P00519, F317I); conditions: 10 µM, read-out: score (%)
T1 construct: purchased DiscoveRx (KinomeScan)
T1 sequence (P00519 whole entry F317I): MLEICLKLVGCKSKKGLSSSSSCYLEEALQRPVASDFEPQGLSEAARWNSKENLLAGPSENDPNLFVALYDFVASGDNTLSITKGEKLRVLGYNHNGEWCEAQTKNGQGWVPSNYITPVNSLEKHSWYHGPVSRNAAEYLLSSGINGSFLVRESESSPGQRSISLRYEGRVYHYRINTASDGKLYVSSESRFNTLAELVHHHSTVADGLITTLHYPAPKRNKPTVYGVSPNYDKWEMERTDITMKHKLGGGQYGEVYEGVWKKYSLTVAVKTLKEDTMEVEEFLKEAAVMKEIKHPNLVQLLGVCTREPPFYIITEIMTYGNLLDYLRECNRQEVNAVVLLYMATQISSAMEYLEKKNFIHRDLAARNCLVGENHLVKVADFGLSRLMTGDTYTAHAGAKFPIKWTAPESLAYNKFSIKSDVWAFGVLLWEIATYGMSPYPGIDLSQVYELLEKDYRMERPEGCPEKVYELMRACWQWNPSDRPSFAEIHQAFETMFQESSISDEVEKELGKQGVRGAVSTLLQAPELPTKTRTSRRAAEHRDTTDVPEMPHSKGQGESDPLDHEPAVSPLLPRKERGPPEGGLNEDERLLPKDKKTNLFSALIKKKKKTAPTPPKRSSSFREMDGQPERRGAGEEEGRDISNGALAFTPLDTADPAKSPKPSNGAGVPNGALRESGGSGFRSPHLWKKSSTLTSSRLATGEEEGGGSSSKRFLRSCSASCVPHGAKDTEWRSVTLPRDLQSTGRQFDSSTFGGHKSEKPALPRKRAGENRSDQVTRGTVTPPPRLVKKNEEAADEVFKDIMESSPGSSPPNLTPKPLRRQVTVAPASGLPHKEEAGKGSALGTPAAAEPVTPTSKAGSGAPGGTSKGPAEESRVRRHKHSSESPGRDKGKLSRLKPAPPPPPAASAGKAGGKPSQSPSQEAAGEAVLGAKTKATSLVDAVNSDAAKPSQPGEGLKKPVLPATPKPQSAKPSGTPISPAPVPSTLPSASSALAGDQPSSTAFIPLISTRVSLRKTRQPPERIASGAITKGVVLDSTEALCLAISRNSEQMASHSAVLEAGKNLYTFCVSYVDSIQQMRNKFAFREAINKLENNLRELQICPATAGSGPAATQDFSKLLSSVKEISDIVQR

KinomeScan kinase panel [2] = target: T2, KinomeScan kinase panel (Homo sapiens, UniProt P51813); conditions: BMX, 10 µM; read-out: score (%)
T2 construct: purchased DiscoveRx (KinomeScan)
T2 sequence (P51813 1-675): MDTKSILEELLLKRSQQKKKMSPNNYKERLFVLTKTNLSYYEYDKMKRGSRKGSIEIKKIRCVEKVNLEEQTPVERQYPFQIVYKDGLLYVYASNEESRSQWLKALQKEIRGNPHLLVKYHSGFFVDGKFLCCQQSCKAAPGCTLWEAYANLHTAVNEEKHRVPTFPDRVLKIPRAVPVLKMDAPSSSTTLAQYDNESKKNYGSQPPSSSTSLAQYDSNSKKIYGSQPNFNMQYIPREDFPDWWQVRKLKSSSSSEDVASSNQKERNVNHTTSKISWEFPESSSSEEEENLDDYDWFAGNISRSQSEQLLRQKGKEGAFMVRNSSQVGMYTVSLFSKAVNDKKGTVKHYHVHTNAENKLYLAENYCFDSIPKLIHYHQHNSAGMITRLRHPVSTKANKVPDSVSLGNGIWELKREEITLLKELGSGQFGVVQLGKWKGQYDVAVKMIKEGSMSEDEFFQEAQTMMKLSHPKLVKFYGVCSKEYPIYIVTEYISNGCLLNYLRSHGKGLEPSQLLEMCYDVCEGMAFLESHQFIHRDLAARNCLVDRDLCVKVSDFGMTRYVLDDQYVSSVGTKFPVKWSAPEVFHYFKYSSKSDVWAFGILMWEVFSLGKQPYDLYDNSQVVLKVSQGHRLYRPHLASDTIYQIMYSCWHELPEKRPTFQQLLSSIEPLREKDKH

KinomeScan kinase panel [3] = target: T3, KinomeScan kinase panel (Homo sapiens, UniProt O75716); conditions: read-out: score (%)
T3 construct: purchased DiscoveRx (KinomeScan)
T3 sequence (O75716 whole entry): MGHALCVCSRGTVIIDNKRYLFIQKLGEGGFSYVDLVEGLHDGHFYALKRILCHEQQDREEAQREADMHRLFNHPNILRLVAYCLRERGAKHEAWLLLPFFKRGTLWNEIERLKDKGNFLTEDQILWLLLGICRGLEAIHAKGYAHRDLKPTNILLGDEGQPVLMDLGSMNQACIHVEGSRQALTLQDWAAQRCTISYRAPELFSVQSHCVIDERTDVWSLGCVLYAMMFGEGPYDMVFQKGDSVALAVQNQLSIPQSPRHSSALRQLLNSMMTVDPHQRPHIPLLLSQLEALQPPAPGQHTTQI

KinomeScan kinase panel [4] = target: T4, KinomeScan kinase panel (Homo sapiens, UniProt Q92772); conditions: CDKL2, 10 µM; read-out: score (%)
T4 construct: purchased DiscoveRx (KinomeScan)
T4 sequence (Q92772 1-493): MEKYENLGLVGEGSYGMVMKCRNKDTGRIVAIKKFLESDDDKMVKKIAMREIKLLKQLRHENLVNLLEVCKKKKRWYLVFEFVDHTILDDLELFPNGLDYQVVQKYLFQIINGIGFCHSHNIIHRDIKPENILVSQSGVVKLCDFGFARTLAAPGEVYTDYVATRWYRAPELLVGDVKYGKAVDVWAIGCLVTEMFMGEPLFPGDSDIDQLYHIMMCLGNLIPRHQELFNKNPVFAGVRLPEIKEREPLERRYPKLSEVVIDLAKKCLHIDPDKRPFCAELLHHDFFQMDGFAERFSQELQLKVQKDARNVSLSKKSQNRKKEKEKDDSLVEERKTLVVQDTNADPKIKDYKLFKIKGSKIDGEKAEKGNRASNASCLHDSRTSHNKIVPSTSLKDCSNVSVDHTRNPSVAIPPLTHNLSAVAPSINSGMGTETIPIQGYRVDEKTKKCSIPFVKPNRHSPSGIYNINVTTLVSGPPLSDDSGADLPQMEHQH

KinomeScan kinase panel [5] = target: T5, KinomeScan kinase panel (Homo sapiens, UniProt P54762); conditions: EPHB1, 10 µM; read-out: score (%)
T5 construct: purchased DiscoveRx (KinomeScan)
T5 sequence (P54762 18-984): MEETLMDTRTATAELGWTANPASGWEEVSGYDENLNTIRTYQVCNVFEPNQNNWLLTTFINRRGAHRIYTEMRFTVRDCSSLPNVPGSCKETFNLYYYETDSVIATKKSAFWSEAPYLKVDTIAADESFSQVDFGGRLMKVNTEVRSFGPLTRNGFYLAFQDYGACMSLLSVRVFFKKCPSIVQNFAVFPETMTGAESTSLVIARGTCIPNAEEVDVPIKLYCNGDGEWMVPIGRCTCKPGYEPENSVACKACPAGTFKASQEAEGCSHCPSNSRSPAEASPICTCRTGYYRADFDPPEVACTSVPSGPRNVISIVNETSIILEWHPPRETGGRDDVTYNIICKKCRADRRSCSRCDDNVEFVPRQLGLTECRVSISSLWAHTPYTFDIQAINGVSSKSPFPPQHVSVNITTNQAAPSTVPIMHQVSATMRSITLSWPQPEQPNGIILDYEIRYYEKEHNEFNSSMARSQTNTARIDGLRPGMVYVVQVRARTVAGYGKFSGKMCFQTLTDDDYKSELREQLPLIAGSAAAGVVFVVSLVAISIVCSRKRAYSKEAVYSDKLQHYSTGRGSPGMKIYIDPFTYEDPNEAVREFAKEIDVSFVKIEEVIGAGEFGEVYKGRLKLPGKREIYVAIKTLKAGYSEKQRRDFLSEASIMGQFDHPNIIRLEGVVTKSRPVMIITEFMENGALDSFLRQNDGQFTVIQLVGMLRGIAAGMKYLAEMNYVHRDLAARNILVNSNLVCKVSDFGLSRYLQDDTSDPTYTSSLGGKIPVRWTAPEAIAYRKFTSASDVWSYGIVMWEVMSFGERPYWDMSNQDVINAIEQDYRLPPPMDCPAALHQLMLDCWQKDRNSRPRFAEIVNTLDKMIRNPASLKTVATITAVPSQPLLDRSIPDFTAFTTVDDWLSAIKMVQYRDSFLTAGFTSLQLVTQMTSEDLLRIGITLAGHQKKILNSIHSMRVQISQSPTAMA

KinomeScan kinase panel [6] = target: T6, KinomeScan kinase panel (Homo sapiens, UniProt Q99759); conditions: MAP3K3, 10 µM; read-out: score (%)
T6 construct: purchased DiscoveRx (KinomeScan)
T6 sequence (Q99759 1-626): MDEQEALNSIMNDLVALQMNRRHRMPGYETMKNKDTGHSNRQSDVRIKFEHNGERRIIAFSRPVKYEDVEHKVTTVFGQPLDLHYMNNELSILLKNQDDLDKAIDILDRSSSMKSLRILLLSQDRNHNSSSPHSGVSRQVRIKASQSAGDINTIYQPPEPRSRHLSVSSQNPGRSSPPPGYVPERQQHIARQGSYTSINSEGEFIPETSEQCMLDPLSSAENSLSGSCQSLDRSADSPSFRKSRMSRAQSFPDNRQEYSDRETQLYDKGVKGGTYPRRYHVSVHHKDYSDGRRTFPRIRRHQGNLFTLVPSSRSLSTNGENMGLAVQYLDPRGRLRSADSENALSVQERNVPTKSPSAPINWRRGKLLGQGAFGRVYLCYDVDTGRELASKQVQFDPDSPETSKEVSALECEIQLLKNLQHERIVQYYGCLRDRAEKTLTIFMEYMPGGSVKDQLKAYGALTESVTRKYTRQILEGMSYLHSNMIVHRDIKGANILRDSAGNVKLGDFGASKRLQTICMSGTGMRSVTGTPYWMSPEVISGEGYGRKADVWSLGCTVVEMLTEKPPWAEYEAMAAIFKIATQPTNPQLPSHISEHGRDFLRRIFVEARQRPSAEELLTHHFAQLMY

Row | Structure (SMILES) | remaining binding at 10 µM (KinomeScan kinase panel [1]; ABL1(F317I)) | remaining binding at 10 µM (KinomeScan kinase panel [2]) | remaining binding at 10 µM (KinomeScan kinase panel [3]; kinase STK16, 10 µM) | remaining binding at 10 µM (KinomeScan kinase panel [4]) | remaining binding at 10 µM (KinomeScan kinase panel [5]) | remaining binding at 10 µM (KinomeScan kinase panel [6]) | remaining binding at 10 µM (KinomeScan kinase panel [1]; ABL1(F317I)-nonphosphorylated) | remaining binding at 10 µM (KinomeScan kinase panel [1]; ABL1(F317I)-phosphorylated) | remaining binding at 10 µM (KinomeScan kinase panel [3]; STK16, 10 µM)
1 | CCN1CCN(Cc2ccc(NC(=O)c3ccc(C)c(NC(=O)c4cncc(-c5cccs5)c4)c3)cc2C(F)(F)F)CC1 [ALW-II-41-27] | 0.2% | 11% | > 30% | 9.1% | 0.15% | 0.25% |  |  | 
2 | CCN1CCN(Cc2ccc(NC(=O)c3ccc(C)c(C#Cc4cccnc4)c3)cc2C(F)(F)F)CC1 [XMD15-44] |  | 2.7% | 100% | 1.4% | 0.5% | 1.4% | 8.8% | 4% | 
3 | CCN1CCN(Cc2ccc(NC(=O)c3ccc(C)c(/C=C/c4cnc5[nH]ccc5c4Cl)c3)cc2C(F)(F)F)CC1 [HG-6-63-01, (E)-3-(2-(4-chloro-1H-pyrrolo[2,3-b]pyridin-5-yl)vinyl)-N-(4-((4-ethylpiperazin-1-yl)methyl)-3-(trifluoromethyl)phenyl)-4-methylbenzamide] | 0.05% | 1.6% |  | 0.5% | 0.7% | 4% |  |  | 18%
